Test results reported in the NIST ThermoML archive (doi:10.1016/j.jct.2012.08.018).
Numbers after ± are expanded uncertainties.

Assay: molar enthalpy of vaporization or sublimation
Conditions: 298.15 K; Crystal; Static calorimetry

Row | SMILES | molar enthalpy
1 | CCOC(N)=O [ethyl carbamate] | 18.6 ± 0.335 kcal/mol
2 | COC(N)=O [carbamic acid, methyl ester] | 17.6 ± 0.311 kcal/mol
